{
  "source": "patent US20240425541A1",
  "about": "“OLIGOSACCHARIDE COMPOUNDS AND COMPLEXES” (priority 2021, published 2024)",
  "key": {"[1]": {"system": "Hemagglutinin (HA) protein of the influenza strain California/7/2009", "test": "Anti-Influenza HA IgG in serum by enzyme-linked immunosorbent assay after i.m. vaccination", "assay_type": "in vivo", "conditions": "for IgG concentration against HA: oligosaccharide + Tween40 1:0.5, HA modRNA 0.5 μg i.m. prime/boost day 0/day 28, N/P6"}, "hPBMCs": {"system": "hPBMCs", "test": "Pro-inflammatory cytokine secretion by hPBMCs 24 hours after transfection (MSD Kit)", "assay_type": "cell-based, human", "conditions": "for Level of secretion of pro-inflammatory cytokines, IL-6, TNF-α, IL-1 and IFN-γ: oligosaccharide + Tween40 1:0.5, modRNA N/P 6, 24 hours, 10^6 hPBMCs", "procedure": "All groups received modRNA formulated at N/P 6. Formulations were complexed with RNA in MBG Buffer (final concentration 5% w/v Glucose, 10 mM MES, pH 6.1), at RNA final concentration of 0.15 mg/ml and the mixing ratio of the RNA containing solution and the oligosaccharide+Tween40 containing solution was 9:1 (v:v) for all the cases. IL-6, TNF-α, IL-1p and IFN-γ secretion after 24 hours of transfection of 10^6 hPMBCs was evaluated in the supernatants using MSD Kit Standard Protocol.\nFIG. 19A is a plot illustrating IL-6 secretion by hPBMCs upon exposure to different doses of tested formulations. FIG. 19B is a plot illustrating TNF-α secretion by hPBMCs upon exposure to different doses of tested formulations. FIG. 19C is a plot illustrating IL-1p secretion by hPBMCs upon exposure to different doses of tested formulations. FIG. 19D is a plot illustrating IFN-γ secretion by hPBMCs upon exposure to different doses of tested formulations. In the second part of the experiment, the same tested formulations were used in a vaccination study."}, "[2]": {"test": "Hydrodynamic diameter of complexes by dynamic light scattering (DLS)", "assay_type": "physicochemical", "procedure": "Sizes of complexes described in the present examples were analyzed by DynaPro PlateReader II, using dynamic light scattering (DLS) for calculating the hydrodynamic diameter of complexes. The formulations are measured by diluting the sample to 0.0125 mg/mL RNA in 120 μl of MGB (10 mM MES, pH 6.1, 5% D-Glucose) 5% in wells of a 96-well plate. Ten acquisitions are recorded per well, each lasting 5 seconds."}, "female BALB/c mice": {"system": "female BALB/c mice", "test": "In-vivo luciferase expression (bioluminescence) in applied tissue after i.m. injection of formulated modRNA or saRNA", "conditions": "modRNA i.m., N/P 6", "procedure": "Eighteen female BALB/c mice were divided into […] study groups. All groups received the same amount of formulated luciferase encoding modRNA or saRNA (1 μg), applied i.m. to each leg. At […] time points (6 hours, 24 hours, 72 hours, 6 days, 8 days, 20 days), in-vivo luciferase expression in applied tissue was measured. Three modRNA groups were formulated with JRL13 at three different N/P Ratios (1, 6, or 12) and three saRNA groups were formulated with JRL13 at three different N/P Ratios (either 1, 6 or 12). N/P ratio is calculated based on the JRL13-RNA charges ratio, as described herein. […] FIG. 4C is a bar graph illustrating quantified bioluminescence over the duration of the experiment for example compositions having indicated N/P ratios comprising modRNA and JRL13. FIG. 4D is a bar graph illustrating quantified bioluminescence over the duration of the experiment for example compositions having indicated N/P ratios comprising saRNA and JRL13.\nThe present example examines the impact of different cationic groups on intramuscular delivery of saRNA. […] At six time points (6 hours, 24 hours, 72 hours, 6 days, 9 days, 20 days), in-vivo luciferase expression in applied tissue was measured. […] FIG. 5B is a bar graph illustrating quantified bioluminescence over the duration of the experiment and normalized to the JRL13-saRNA group. […]"}, "Influenza HA peptides": {"system": "Influenza HA peptides", "test": "CD4/CD8 T-Cell response to Influenza HA peptides by IFN-ELISPOT of splenocytes after i.m. vaccination", "assay_type": "in vivo, influenza strain California/7/2009", "conditions": "JLF99 + Tween20 1:0.5, HA modRNA 1 μg i.m. prime/boost d0/d28, N/P 6"}, "Influenza": {"system": "Influenza", "test": "Virus neutralizing titers by VNT Assay after i.m. vaccination", "assay_type": "in vivo, influenza strain California/7/2009", "conditions": "JLF99 + Tween20 1:0.5, HA modRNA 1 μg i.m. prime/boost d0/d28, N/P 6", "from_the_text": "The animals were subjected to non-invasive serological surveillance over 49 days at different time points (day 0, day 14, day 21, day 28, day 49) and spleen was extracted at the end of the experiment for quantification of CD4/CD8 T-Cell response to Influenza HA peptides. Anti-Influenza HA antibodies in serum were quantified by enzyme-linked immunosorbent assay. Virus neutralizing titers were quantified by VNT Assay. CD4/CD8 T-Cell response was quantified by via IFN-ELISPOT of Splenocytes. FIG. 16A illustrates serological levels of specific IgG against HA over the course of the experiment. FIG. 16B illustrates Influenza specific neutralizing titers over the course of the experiment. FIG. 16C illustrates end-point titration of the serological levels of specific IgG against HA. FIG. 16D illustrates the CD8/CD4 response against HA-peptide pools."}, "[3]": {"system": "Glycoprotein (Gc) of the Crimean-Congo Hemorrhagic Fever Virus (CCHFV)", "assay_type": "in vivo"}, "CCHFV-Gc peptides": {"system": "CCHFV-Gc peptides", "assay_type": "in vivo, Crimean-Congo Hemorrhagic Fever Virus", "conditions": "JLF99 + Tween40 1:0.5, Gc saRNA 1.3 μg i.m. prime/boost, C57BL/6 IFNAR −/− mice"}, "[4]": {"conditions": "JLF99 + Tween20 1:0.5, HA modRNA 1 μg i.m. prime/boost d0/d28, N/P 6"}},
  "data": [
    {"smiles": "CCCCCCCCCC(=O)OC1C(OC(=O)CCCCCCCCC)[C@H](OC(=O)CCCCCCCCC)C(CSCCNC(=S)NCCN2CCC(C(N)=O)CC2)O[C@@H]1O[C@H]1OC(CSCCNC(=S)NCCN2CCC(C(N)=O)CC2)[C@@H](OC(=O)CCCCCCCCC)C(OC(=O)CCCCCCCCC)C1OC(=O)CCCCCCCCC", "note": "(stereo partly drawn) [JLF244]", "values": [
      {"measurement": "IgG concentration against HA", "setting": "[1]", "value": "highest IgG concentration"},
      {"measurement": "Level of secretion of pro-inflammatory cytokines, IL-6, TNF-α, IL-1 and IFN-γ", "setting": "hPBMCs", "value": "highest level of secretion"}
    ]},
    {"smiles": "CCCCCCCCCC(=O)OC1C(OC(=O)CCCCCCCCC)[C@H](OC(=O)CCCCCCCCC)C(CSCCNC(=S)NCCN2CCOCC2)O[C@@H]1O[C@H]1OC(CSCCNC(=S)NCCN2CCOCC2)[C@@H](OC(=O)CCCCCCCCC)C(OC(=O)CCCCCCCCC)C1OC(=O)CCCCCCCCC", "note": "(stereo partly drawn) [JLF99]", "values": [
      {"measurement": "Hydrodynamic diameter", "setting": "[2]; saRNA, N/P 6", "value": "about 150 nm"},
      {"measurement": "modRNA expression (bioluminescence normalized to the JLF41-modRNA group)", "setting": "female BALB/c mice", "value": "promising modRNA expression"},
      {"measurement": "IgG against HA-antigen over the course of the experiment versus LNP benchmark", "setting": "[1]; [4]", "value": "no apparent differences"},
      {"measurement": "Serological concentration of IgG at the end-point (day 49)", "setting": "[1]; [4]", "value": "comparable to the LNP group"},
      {"measurement": "Delivery of and immune response to different RNA platforms", "setting": "[1]; JLF99 + Tween20 1:0.5, taRNA, saRNA or modRNA 1 μg i.m. prime/boost, N/P 6", "value": "functionally delivered all the RNAs upon i.m injection and elicited a strong immune response"},
      {"measurement": "IgG concentration against HA", "setting": "[1]", "value": "then by JLF99 and JLF218"},
      {"measurement": "CD4-CD8 response versus LNP benchmark", "setting": "Influenza HA peptides", "value": "no significant difference"},
      {"measurement": "Virus neutralizing titers versus LNP benchmark", "setting": "Influenza", "value": "same findings"},
      {"measurement": "Adjuvanticity", "setting": "hPBMCs; oligosaccharide + Tween40 1:0.5, modRNA N/P 6", "value": "strong adjuvanticity"},
      {"measurement": "Immunological response to low immunogenic antigen CCHFV-Gc", "setting": "[3]; JLF99 + Tween40 1:0.5, Gc saRNA 1.3 μg i.m. prime/boost d0/d28, N/P6, C57BL/6 IFNAR −/− mice", "value": "strong immunological response"},
      {"measurement": "Antibody levels versus LNP benchmark", "setting": "[3]; after d28 (prior boost), JLF99 + Tween40 1:0.5, Gc saRNA 1.3 μg i.m., C57BL/6 IFNAR −/− mice", "value": "identical to the ones achieved by the LNP benchmark"},
      {"measurement": "Antibody level versus LNP benchmark", "setting": "[3]; d14, JLF99 + Tween40 1:0.5, Gc saRNA 1.3 μg i.m., C57BL/6 IFNAR −/− mice", "value": "lower than the LNP"},
      {"measurement": "T-cell responses against Gc-peptides versus LNP benchmark", "setting": "CCHFV-Gc peptides", "value": "equally strong"}
    ]},
    {"smiles": "CCCCCCCCCC(=O)OC1C(OC(=O)CCCCCCCCC)[C@H](OC(=O)CCCCCCCCC)C(CSCCNC(=S)NCCn2ccnc2)O[C@@H]1O[C@H]1OC(CSCCNC(=S)NCCn2ccnc2)[C@@H](OC(=O)CCCCCCCCC)C(OC(=O)CCCCCCCCC)C1OC(=O)CCCCCCCCC", "note": "(stereo partly drawn) [JLF110]", "values": [
      {"measurement": "Level of secretion of pro-inflammatory cytokines, IL-6, TNF-α, IL-1 and IFN-γ", "setting": "hPBMCs", "value": "medium levels of secretion"}
    ]},
    {"smiles": "CCCCCCCCCC(=O)OC[C@@]1(O[C@H]2OC(CSCCNC(=S)NCCN3CCOCC3)[C@@H](OC(=O)CCCCCCCCC)C(OC(=O)CCCCCCCCC)C2OC(=O)CCCCCCCCC)O[C@H](CSCCNC(=S)NCCN2CCOCC2)[C@@H](OC(=O)CCCCCCCCC)[C@@H]1OC(=O)CCCCCCCCC", "note": "(stereo partly drawn) [JLF218]", "values": [
      {"measurement": "IgG concentration against HA", "setting": "[1]", "value": "then by JLF99 and JLF218"}
    ]},
    {"smiles": "CCCCCCCCCC(=O)OC1C(OC(=O)CCCCCCCCC)[C@H](OC(=O)CCCCCCCCC)C(CSCCNC(=S)NCCN(C)C)O[C@@H]1O[C@H]1OC(CSCCNC(=S)NCCN(C)C)[C@@H](OC(=O)CCCCCCCCC)C(OC(=O)CCCCCCCCC)C1OC(=O)CCCCCCCCC", "note": "(stereo partly drawn) [JLF41]", "values": [
      {"measurement": "Difference in particle size between N/P 1 and N/P 6", "setting": "[2]; modRNA", "value": "greater difference"}
    ]}
  ]
}
